Test results taken from patent US9422267B2, “Fused pyrimidine compounds and use thereof” (Medivation Technologies, Inc., priority 2012, dated 2016).
Read-outs that look alike come from different tables or passages of the source.

Columns and labels:
[1] = tested on: Akt phosphorylation induced by IGF-1R in HT-29 cells; assay: Western blot analysis of Akt phosphorylation induced by IGF-1R; type: cell-based, Human; details: for phosphorylated AKT levels normalized to actin levels (pAKT/actin): then IGF-1 10 ng/mL 10 min, HT-29
Experimental: Inhibition of Akt phosphorylation induced by IGF-1R was studied by western blot analysis. Human colon carcinoma HT-29 cells were seeded at a density of 8×10^4 cells/well in a 24-well plate and grown in DME/F12 media containing 10% FBS for 24 h. The cells were then depleted of serum by incubation in DME/F12 media lacking FBS for 24 h. […] […] Lysed cells were centrifuged at 13,000 rpm for 15 min and the protein concentration soluble fraction (supernatant) of each sample was determined using a BCA protein assay (Pierce).

IGF1R = IGF1R (Homo sapiens, UniProt P08069); assay: In vitro IGF-1R enzymatic assay (ADP-Glo kinase assay); type: biochemical; set-up: purchased Millipore 14-802; details: activated IGF-1R, 30 nM
Experimental: IC50 values of the compounds of the invention against IGF-1R and IR were measured in vitro using an ADP-Glo kinase assay Kit (Promega). […] Kinase reactions in both assays were conducted at 30° C. for 20 min with increasing concentrations of compounds of the invention.

[2] = average, read-out: % Inh @ 30 nM Avg
[3] = replicate N1, read-out: % Inh @ 30 nM (N1)
[4] = replicate N2, read-out: % Inh @ 30 nM (N2)

IGF1R, sequence (P08069 31-1367): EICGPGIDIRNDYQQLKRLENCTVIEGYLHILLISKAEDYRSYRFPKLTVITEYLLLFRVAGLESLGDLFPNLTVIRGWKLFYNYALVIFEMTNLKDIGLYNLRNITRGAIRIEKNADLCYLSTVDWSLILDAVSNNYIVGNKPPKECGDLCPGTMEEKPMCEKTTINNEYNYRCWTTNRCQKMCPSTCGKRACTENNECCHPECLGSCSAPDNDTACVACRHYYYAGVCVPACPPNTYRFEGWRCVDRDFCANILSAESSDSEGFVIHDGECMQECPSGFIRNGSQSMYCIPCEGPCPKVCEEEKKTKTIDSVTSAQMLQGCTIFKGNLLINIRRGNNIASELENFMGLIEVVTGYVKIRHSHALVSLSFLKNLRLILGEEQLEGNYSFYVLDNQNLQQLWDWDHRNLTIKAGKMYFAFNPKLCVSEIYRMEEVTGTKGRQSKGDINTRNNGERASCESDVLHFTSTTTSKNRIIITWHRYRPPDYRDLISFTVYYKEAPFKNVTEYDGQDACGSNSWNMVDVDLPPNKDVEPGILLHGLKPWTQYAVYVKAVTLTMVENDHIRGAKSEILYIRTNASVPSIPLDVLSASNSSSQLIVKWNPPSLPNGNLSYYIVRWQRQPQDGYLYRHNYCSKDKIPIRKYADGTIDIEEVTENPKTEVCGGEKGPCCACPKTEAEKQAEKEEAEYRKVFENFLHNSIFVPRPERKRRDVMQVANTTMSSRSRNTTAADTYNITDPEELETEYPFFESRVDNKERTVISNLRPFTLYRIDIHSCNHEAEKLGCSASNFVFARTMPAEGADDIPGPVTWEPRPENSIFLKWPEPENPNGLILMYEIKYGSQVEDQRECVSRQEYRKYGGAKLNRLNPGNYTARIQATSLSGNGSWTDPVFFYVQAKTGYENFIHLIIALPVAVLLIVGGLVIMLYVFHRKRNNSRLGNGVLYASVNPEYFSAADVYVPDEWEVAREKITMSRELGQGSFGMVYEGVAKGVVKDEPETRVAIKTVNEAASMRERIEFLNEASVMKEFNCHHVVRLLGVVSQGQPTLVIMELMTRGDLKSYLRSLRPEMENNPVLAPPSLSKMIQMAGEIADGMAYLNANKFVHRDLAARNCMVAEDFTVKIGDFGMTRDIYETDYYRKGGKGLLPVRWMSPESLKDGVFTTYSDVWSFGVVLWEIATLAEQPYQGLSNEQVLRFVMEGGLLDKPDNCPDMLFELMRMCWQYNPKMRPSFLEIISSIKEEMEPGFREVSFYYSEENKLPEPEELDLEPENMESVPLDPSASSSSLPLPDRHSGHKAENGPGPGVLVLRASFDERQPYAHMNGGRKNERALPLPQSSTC

Structure (SMILES) | phosphorylated AKT levels normalized to actin levels (pAKT/actin) ([1]; 1 nM compound 2 h) | phosphorylated AKT levels normalized to actin levels (pAKT/actin) ([1]; 10 nM compound 2 h) | phosphorylated AKT levels normalized to actin levels (pAKT/actin) ([1]; 100 nM compound 2 h) | phosphorylated AKT levels normalized to actin levels (pAKT/actin) ([1]; 0.1 nM compound 2 h) | further results
O=C(Nc1ccc(F)nc1)C1CCCN1c1nc2c(c(Nc3cc(C4CC4)[nH]n3)n1)CCC2 (racemic) [Compound 2, 1-(4-(5-cyclopropyl-1H-pyrazol-3-ylamino)-6,7-dihydro-5H-cyclopenta[d]pyrimidin-2-yl)-N-(6-fluoropyridin-3-yl)pyrrolidine-2-carboxamide] | 0.91 | 0.07 | 0.00 | – | –
O=C(Nc1ccc(F)nc1)C1CCCN1c1nc2c(c(Nc3cc(C4CCCC4)[nH]n3)n1)CCC2 (racemic) [Compound 4, 1-(4-(5-cyclopentyl-1H-pyrazol-3-ylamino)-6,7-dihydro-5H-cyclopenta[d]pyrimidin-2-yl)-N-(6-fluoropyridin-3-yl)pyrrolidine-2-carboxamide] | – | – | 0.06 | – | –
O=C(Nc1cnccn1)C1CCCN1c1nc2c(c(Nc3cc(C4CC4)[nH]n3)n1)CCC2 (racemic) [Compound 6, 1-(4-(5-cyclopropyl-1H-pyrazol-3-ylamino)-6,7-dihydo-5H-cyclopenta[d]pyrimidin-2-yl)-N-(pyrazin-2-yl)pyrrolidine-2-carboxamide] | 0.22 | 0.01 | 0.01 | – | Normalized phosphorylated AKT (relative to actin) levels relative to 0.1 nM compound treatment ([1]; 100 nM): 0.0
O=C(Nc1cncnc1)C1CCCN1c1nc2c(c(Nc3cc(C4CC4)[nH]n3)n1)CCC2 (racemic) [Compound 7, 1-(4-(5-cyclopropyl-1H-pyrazol-3-ylamino)-6,7-dihydro-5H-cyclopenta[d]pyrimidin-2-yl)-N-(pyrimidin-5-yl)pyrrolidine-2-carboxamide] | – | – | 1.20 | – | –
O=C(Nc1ccc(F)nc1)C1CCCCN1c1nc2c(c(Nc3cc(C4CC4)[nH]n3)n1)CCC2 (racemic) [Compound 9, 1-(4-(5-cyclopropyl-1H-pyrazol-3-ylamino)-6,7-dihydro-5H-cyclopenta[d]pyrimidin-2-yl)-N-(6-fluoropyridin-3-yl)piperidine-2-carboxamide] | 0.71 | 0.07 | 0.00 | 0.67 | –
O=C(Nc1ccc(F)nc1)C1CCCN1c1nc2c(c(Nc3cc(C4CC4)[nH]n3)n1)CCC2 (single isomer, unassigned) [Compound 2a, 1-(4-(5-cyclopropyl-1H-pyrazol-3-ylamino)-6,7-dihydro-5H-cyclopenta[d]pyrimidin-2-yl)-N-(6-fluoropyridin-3-yl)pyrrolidine-2-carboxamide] | – | – | – | 1.70 | –
O=C(Nc1cccnc1)C1CCCN1c1nc2c(c(Nc3cc(C4CC4)[nH]n3)n1)CCC2 (single isomer, unassigned) [Compound 3b, 1-(4-(5-cyclopropyl-1H-pyrazol-3-ylamino)-6,7-dihydro-5H-cyclopenta[d]pyrimidin-2-yl)-N-(pyridin-3-yl)pyrrolidine-2-carboxamide] | 1.70 | 0.57 | 0.02 | – | –
O=C(Nc1ccc(F)nc1)C1CCCN1c1nc2c(c(Nc3cc(C4CCCC4)[nH]n3)n1)CCC2 (single isomer, unassigned) [Compound 4b, 1-(4-(5-cyclopentyl-1H-pyrazol-3-ylamino)-6,7-dihydro-5H-cyclopenta[d]pyrimidin-2-yl)-N-(6-fluoropyridin-3-yl)pyrrolidine-2-carboxamide] | – | – | 0.20 | – | –
O=C(Nc1cnccn1)C1CCCN1c1nc2c(c(Nc3cc(C4CC4)[nH]n3)n1)CCC2 (single isomer, unassigned) [Compound 6a] | – | 1.40 | – | – | –
O=C(Nc1ccc(F)nc1)C1CCCCN1c1nc2c(c(Nc3cc(C4CC4)[nH]n3)n1)CCC2 (single isomer, unassigned) [Compound 9a, 1-(4-(5-cyclopropyl-1H-pyrazol-3-ylamino)-6,7-dihydro-5H-cyclopenta[d]pyrimidin-2-yl)-N-(6-fluoropyridin-3-yl)piperidine-2-carboxamide] | – | 0.53 | 0.02 | – | –
O=C(Nc1ccc(F)nc1)C1C(O)CCN1c1nc2c(c(Nc3cc(C4CC4)[nH]n3)n1)CCC2 (single isomer, unassigned) [Compound 11a] | – | – | – | – | inhibition at 0.03 µM (IGF1R; [2]): 13%; inhibition at 0.03 µM (IGF1R; [3]): 17%; inhibition at 0.03 µM (IGF1R; [4]): 10%
O=C(Nc1ccc(F)nc1)C1C(O)CCN1c1nc2c(c(Nc3cc(C4CC4)[nH]n3)n1)CCC2 (single isomer, unassigned) [Compound 11b, 1-(4-(5-cyclopropyl-1H-pyrazol-3-ylamino)-6,7-dihydro-5H-cyclopenta[d]pyrimidin-2-yl)-N-(6-fluoropyridin-3-yl)-3-hydroxypyrrolidine-2-carboxamide] | – | – | 0.33 | – | –
CC(C)c1cc(Nc2nc(N3CCCC3C(=O)Nc3ccc(F)nc3)nc3c2CCC3)on1 (single isomer, unassigned) [Compound 12a, N-(6-fluoropyridin-3-yl)-1-(4-(3-isopropylisoxazol-5-ylamino)-6,7-dihydro-5H-cyclopenta[d]pyrimidin-2-yl)pyrrolidine-2-carboxamide] | – | – | – | – | inhibition at 0.03 µM (IGF1R; [2]): 20%; inhibition at 0.03 µM (IGF1R; [3]): 19%; inhibition at 0.03 µM (IGF1R; [4]): 20%
CC(C)c1cc(Nc2nc(N3CCCC3C(=O)Nc3ccc(F)nc3)nc3c2CCCC3)n[nH]1 (single isomer, unassigned) [Compound 13a, N-(6-fluoropyridin-3-yl)-1-(4-(5-isopropyl-1H-pyrazol-3-ylamino)-5,6,7,8-tetrahydroquinazolin-2-yl)pyrrolidine-2-carboxamide] | 0.54 | 0.45 | 0.80 | 0.51 | –
O=C(Nc1ccc(F)nc1)C1CCCN1c1nc2c(c(Nc3cc(C4CC4)[nH]n3)n1)CCCC2 (single isomer, unassigned) [Compound 14a, 1-(4-(5-cyclopropyl-1H-pyrazol-3-ylamino)-5,6,7,8-tetrahydroquinazolin-2-yl)-N-(6-fluoropyridin-3-yl)pyrrolidine-2-carboxamide] | 0.51 | 0.43 | 0.35 | 0.73 | –
O=C(Nc1ccc(F)nc1)C1CCCN1c1nc2c(c(Nc3cc(C4CCCC4)[nH]n3)n1)CCCC2 (single isomer, unassigned) [Compound 15b, 1-(4-(5-cyclopentyl-1H-pyrazol-3-ylamino)-5,6,7,8-tetrahydroquinazolin-2-yl)-N-(6-fluoropyridin-3-yl)pyrrolidine-2-carboxamide] | 0.58 | 0.43 | 0.13 | 0.52 | –
CC(C)c1cc(Nc2nc(N3CCCCC3C(=O)Nc3ccc(F)nc3)nc3c2CCC3)n[nH]1 (single isomer, unassigned) [Compound 16b, N-(6-fluoropyridin-3-yl)-1-(4-(5-isopropyl-1H-pyrazol-3-ylamino)-6,7-dihydro-5H-cyclopenta[d]pyrimidin-2-yl)piperidine-2-carboxamide] | 0.51 | 0.15 | 0.01 | 0.53 | –
O=C(Nc1ccc(F)nc1)C1CCCCN1c1nc2c(c(Nc3cc(C4CCCC4)[nH]n3)n1)CCC2 (single isomer, unassigned) [Compound 17b, 1-(4-(5-cyclopentyl-1H-pyrazol-3-ylamino)-6,7-dihydro-5H-cyclopenta[d]pyrimidin-2-yl)-N-(6-fluoropyridin-3-yl)piperidine-2-carboxamide] | 0.99 | 0.95 | – | 0.83 | –
CC(C)c1cc(Nc2nc(N3CCCC3C(=O)N(C)C)nc3c2CCC3)n[nH]1 (single isomer, unassigned) [Compound 20a, 1-(4-(5-isopropyl-1H-pyrazol-3-ylamino)-6,7-dihydro-5H-cyclopenta[d]pyrimidin-2-yl)-N,N-dimethylpyrrolidine-2-carboxamide] | – | – | – | – | inhibition at 0.03 µM (IGF1R; [2]): 11%
